Laboratory results as given in patent publication US5238825A, “Preparation and use of a cyclodextrinase for preparing maltooligosaccharides” (Kikkoman Corporation, priority 1989, dated 1993).
Like-named read-outs stand apart in the source and are kept apart here.

Columns and labels:
[1] = target: T1, cyclodextrinase (Lysinibacillus sphaericus, UniProt Q08341); assay: Influence of metal ions on the activity of the present enzyme; assay type: biochemical, Bacillus sphaericus; conditions: for Residual activity: ions added, final conc. 1 mM, none = 100
T1 construct: is cultured in a medium to yield and accumulate said cyclodextrinase, and this enzyme is collected from the culture; made in house; host or cells: Bacillus sphaericus E-244 (FERM BP-2458), the natural wild-type producer strain; not recombinant
T1 sequence (Q08341 1-591): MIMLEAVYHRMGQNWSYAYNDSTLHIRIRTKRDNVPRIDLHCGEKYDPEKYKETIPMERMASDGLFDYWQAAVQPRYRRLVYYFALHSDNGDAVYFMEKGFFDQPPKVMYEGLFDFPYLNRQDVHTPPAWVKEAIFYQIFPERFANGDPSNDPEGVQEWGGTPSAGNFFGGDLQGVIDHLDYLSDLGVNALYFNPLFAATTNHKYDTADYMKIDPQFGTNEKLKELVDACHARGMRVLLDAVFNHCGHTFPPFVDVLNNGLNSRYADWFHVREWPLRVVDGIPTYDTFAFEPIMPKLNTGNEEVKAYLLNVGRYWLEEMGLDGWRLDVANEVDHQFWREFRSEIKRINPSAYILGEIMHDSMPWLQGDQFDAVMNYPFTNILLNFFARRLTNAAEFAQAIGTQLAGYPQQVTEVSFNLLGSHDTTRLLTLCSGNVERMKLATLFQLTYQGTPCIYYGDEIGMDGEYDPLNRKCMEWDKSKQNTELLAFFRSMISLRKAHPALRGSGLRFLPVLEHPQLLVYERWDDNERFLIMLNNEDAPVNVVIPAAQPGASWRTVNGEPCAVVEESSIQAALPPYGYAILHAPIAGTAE
Procedure: (§1) When the amount of the enzyme was small, the reducing power of the enzyme was determined according to Nelson-Somogyi's method, with glucose as standard.

[2] = target: T1, cyclodextrinase; assay: Substrate specificity of the present cyclodextrinase (relative hydrolysis rate); assay type: biochemical, Bacillus sphaericus
Procedure: as §1

[3] = target: T1, cyclodextrinase; assay: Reaction rate parameters of the present enzyme for cyclodextrins and maltooligosaccharides; assay type: biochemical, Bacillus sphaericus; design: Vmax: unit not given here; conditions: for Relative value: Vmax/Km relative to β-cyclodextrin = 1.00
Procedure: as §1

[4] = test system: cyclodextrinase; conditions: Bacillus coagulans enzyme, prior literature; cited from earlier work
[5] = test system: cyclodextrinase; conditions: Bacillus macerans enzyme, prior literature; cited from earlier work
[6] = substrate conc. 2 mM, β-cyclodextrin = 100
[7] = substrate conc. 0.1%, β-cyclodextrin (2 mM) = 100

Row | Compound | Residual activity [1] [%] | Vmax [3] | Relative value [3] | Relative hydrolysis rate [2, 7] [%] | other results
1 | [Ca+2] [Ca^2+] | 138.2 | – | – | – | activation of the enzyme by metal ion [1]: 10-30%
2 | [Cu+2] [Cu^2+] | 2.8 | – | – | – | –
3 | [Fe+3] [Fe^3+] | 41.6 | – | – | – | Residual activity ([1]; listed as Fe^2+): 4.6%
4 | [Hg+2] [Hg^2+] | 0.0 | – | – | – | –
5 | OC[C@H]1O[C@H](O[C@H]2[C@H](O)[C@@H](O)[C@@H](O[C@H]3[C@H](O)[C@@H](O)[C@@H](O[C@H]4[C@H](O)[C@@H](O)[C@@H](O[C@H]5[C@H](O)[C@@H](O)[C@@H](O[C@H]6[C@H](O)[C@@H](O)[C@@H](O[C@H]7[C@H](O)[C@@H](O)C(O)O[C@@H]7CO)O[C@@H]6CO)O[C@@H]5CO)O[C@@H]4CO)O[C@@H]3CO)O[C@@H]2CO)[C@H](O)[C@@H](O)[C@@H]1O (stereo partly drawn) [Maltoheptaose] | – | 0.060 | 0.30 | – | Relative hydrolysis rate [2, 6]: 66%
6 | OC[C@H]1O[C@H](O[C@H]2[C@H](O)[C@@H](O)[C@@H](O[C@H]3[C@H](O)[C@@H](O)[C@@H](O[C@H]4[C@H](O)[C@@H](O)[C@@H](O[C@H]5[C@H](O)[C@@H](O)[C@@H](O[C@H]6[C@H](O)[C@@H](O)C(O)O[C@@H]6CO)O[C@@H]5CO)O[C@@H]4CO)O[C@@H]3CO)O[C@@H]2CO)[C@H](O)[C@@H](O)[C@@H]1O (stereo partly drawn) [Maltohexaose] | – | 0.075 | 0.23 | – | Km [4]: 1.5 mM; Relative hydrolysis rate [2, 6]: 43%
7 | OC[C@H]1O[C@H](O[C@H]2[C@H](O)[C@@H](O)[C@@H](O[C@H]3[C@H](O)[C@@H](O)[C@@H](O[C@H]4[C@H](O)[C@@H](O)[C@@H](O[C@H]5[C@H](O)[C@@H](O)C(O)O[C@@H]5CO)O[C@@H]4CO)O[C@@H]3CO)O[C@@H]2CO)[C@H](O)[C@@H](O)[C@@H]1O (stereo partly drawn) [Maltopentaose] | – | 0.073 | 0.27 | – | Relative hydrolysis rate [2, 6]: 49%
8 | OC[C@H]1O[C@H](O[C@H]2[C@H](O)[C@@H](O)[C@@H](O[C@H]3[C@H](O)[C@@H](O)[C@@H](O[C@H]4[C@H](O)[C@@H](O)C(O)O[C@@H]4CO)O[C@@H]3CO)O[C@@H]2CO)[C@H](O)[C@@H](O)[C@@H]1O (stereo partly drawn) [Maltotetraose] | – | 0.067 | 0.15 | – | –
9 | [Mg+2] [Mg^2+] | 111.3 | – | – | – | activation of the enzyme by metal ion [1]: 10-30%
10 | [Mn+2] [Mn^2+] | 59.3 | – | – | – | –
11 | [Ni+2] [Ni^2+] | 0.9 | – | – | – | –
12 | [Zn+2] [Zn^2+] | 0.0 | – | – | – | –
13 | OC[C@H]1O[C@@H]2O[C@H]3[C@H](O)[C@@H](O)[C@@H](O[C@H]4[C@H](O)[C@@H](O)[C@@H](O[C@H]5[C@H](O)[C@@H](O)[C@@H](O[C@H]6[C@H](O)[C@@H](O)[C@@H](O[C@H]7[C@H](O)[C@@H](O)[C@@H](O[C@H]1[C@H](O)[C@H]2O)O[C@@H]7CO)O[C@@H]6CO)O[C@@H]5CO)O[C@@H]4CO)O[C@@H]3CO [α-cyclodextrin] | – | 0.074 | 0.36 | – | Km [4]: 10 mM; Relative hydrolysis rate [2, 6]: 44%; Km [5]: 2.62 mM
14 | OC[C@H]1O[C@@H]2O[C@H]3[C@H](O)[C@@H](O)[C@@H](O[C@H]4[C@H](O)[C@@H](O)[C@@H](O[C@H]5[C@H](O)[C@@H](O)[C@@H](O[C@H]6[C@H](O)[C@@H](O)[C@@H](O[C@H]7[C@H](O)[C@@H](O)[C@@H](O[C@H]8[C@H](O)[C@@H](O)[C@@H](O[C@H]9[C@H](O)[C@@H](O)[C@@H](O[C@H]1[C@H](O)[C@H]2O)O[C@@H]9CO)O[C@@H]8CO)O[C@@H]7CO)O[C@@H]6CO)O[C@@H]5CO)O[C@@H]4CO)O[C@@H]3CO [γ-cyclodextrin] | – | 0.039 | 0.09 | – | –
15 | Amylopectin | – | – | – | 0.7 | –
16 | Amylose [Amylose (G18)] | – | – | – | 44 | –
17 | Amylose [Amylose (G99)] | – | – | – | 3.7 | –
18 | Dextran | – | – | – | 11 | –
19 | Pullulan | – | – | – | 1.5 | –
20 | Starch | – | – | – | 2.9 | –
